Measurements reported in article PMC6416464 (Drug Metabolism Letters, 2018).
Where two headings read alike, the source gives them in different places.

Tests used:
rCYP2C8 = molecular target: T1, rCYP2C8 (Homo sapiens, UniProt P10632); assay: Metabolic stability / reaction phenotyping with recombinant human CYP2C8; conditions: for % Metabolized at 30 min Incubation with Human Liver Fractions/Enzymes rCYP2C8: 1 µM test compound, 100 pmol/mL
T1 sequence (P10632 1-490): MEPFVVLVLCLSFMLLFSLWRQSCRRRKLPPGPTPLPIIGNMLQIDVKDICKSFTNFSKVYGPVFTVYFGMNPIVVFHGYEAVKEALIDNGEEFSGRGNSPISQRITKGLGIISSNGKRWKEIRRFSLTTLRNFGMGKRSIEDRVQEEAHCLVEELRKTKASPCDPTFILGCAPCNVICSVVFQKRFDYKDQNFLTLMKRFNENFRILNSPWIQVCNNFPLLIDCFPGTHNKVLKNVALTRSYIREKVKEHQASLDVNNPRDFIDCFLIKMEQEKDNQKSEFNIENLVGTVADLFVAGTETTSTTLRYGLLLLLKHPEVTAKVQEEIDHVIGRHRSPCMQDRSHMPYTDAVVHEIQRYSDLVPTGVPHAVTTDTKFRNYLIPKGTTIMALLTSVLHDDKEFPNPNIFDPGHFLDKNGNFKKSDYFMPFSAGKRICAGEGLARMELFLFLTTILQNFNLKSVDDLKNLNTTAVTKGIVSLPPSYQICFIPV

rCYP2D6 = rCYP2D6 (Homo sapiens, UniProt P10635); assay: Metabolic stability / reaction phenotyping with recombinant human CYP2D6; conditions: 1 µM test compound; 100 pmol/mL; 30 min
CYP3A4 [1] = molecular target: T2, CYP3A4 (Homo sapiens, UniProt P08684); assay: in vitro; conditions: microsomes, pH 7.4, % Inhibition of Control Activity CYP3A4 (substrate, testosterone)
rCYP2C19 = rCYP2C19 (Homo sapiens, UniProt P33261); assay: Metabolic stability / reaction phenotyping with recombinant human CYP2C19; conditions: for % Metabolized at 30 min Incubation with Human Liver Fractions/Enzymes rCYP2C19: 1 µM test compound, 100 pmol/mL
rCYP1A2 = molecular target: T3, rCYP1A2 (Homo sapiens, UniProt P05177); assay: Metabolic stability / reaction phenotyping with recombinant human CYP1A2; conditions: 1 µM test compound; 100 pmol/mL; 30 min
T3 sequence (P05177 1-516): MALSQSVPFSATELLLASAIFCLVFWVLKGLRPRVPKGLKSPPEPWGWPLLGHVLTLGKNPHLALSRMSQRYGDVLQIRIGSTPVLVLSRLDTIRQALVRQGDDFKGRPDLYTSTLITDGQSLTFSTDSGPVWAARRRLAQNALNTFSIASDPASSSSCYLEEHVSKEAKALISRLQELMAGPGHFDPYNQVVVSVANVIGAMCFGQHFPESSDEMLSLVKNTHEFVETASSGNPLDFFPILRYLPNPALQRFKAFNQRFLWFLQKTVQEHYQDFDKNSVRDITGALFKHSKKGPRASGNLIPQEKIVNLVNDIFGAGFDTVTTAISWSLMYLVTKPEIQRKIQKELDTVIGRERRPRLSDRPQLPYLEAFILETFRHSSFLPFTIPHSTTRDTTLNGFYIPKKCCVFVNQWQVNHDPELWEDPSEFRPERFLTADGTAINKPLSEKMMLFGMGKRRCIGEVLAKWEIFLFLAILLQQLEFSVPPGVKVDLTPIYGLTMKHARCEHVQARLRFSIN

CYP2C8 = molecular target: T4, CYP2C8 (Homo sapiens, UniProt P10632); assay: CYP inhibition in human liver microsomes, CYP2C8; conditions: human, human liver microsomes, pH 7.4, probe paclitaxel
T4 sequence (P10632 1-490): T1 sequence (P10632 1-490)

[2] = Metabolic stability, incubation with human liver cytosol; type: in vitro ADME; conditions: 1 µM test compound, 1 mg/mL protein
CYP3A4 [3] = molecular target: T2, CYP3A4; assay: in vitro; conditions: microsomes, pH 7.4
[4] = Metabolic stability, incubation with human liver microsomes; conditions: 1 µM test compound, 0.5 mg/mL protein
rCYP2C9 = rCYP2C9 (Homo sapiens, UniProt P11712); assay: Metabolic stability / reaction phenotyping with recombinant human CYP2C9; conditions: for % Metabolized at 30 min Incubation with Human Liver Fractions/Enzymes rCYP2C9: 1 µM test compound, 100 pmol/mL
rCYP3A4 = rCYP3A4 (Homo sapiens, UniProt P08684)
[5] = human, recombinant human CYP2C9, 1 µM, pH 7.4
[6] = human, recombinant human CYP2C8, 1 µM, pH 7.4
[7] = 1 µM test compound, 100 pmol/mL, 30 min
[8] = human, recombinant human CYP2C19, 1 µM, pH 7.4
[9] = human, recombinant enzyme, pH 7.4

rCYP2C19, sequence (P33261 whole entry): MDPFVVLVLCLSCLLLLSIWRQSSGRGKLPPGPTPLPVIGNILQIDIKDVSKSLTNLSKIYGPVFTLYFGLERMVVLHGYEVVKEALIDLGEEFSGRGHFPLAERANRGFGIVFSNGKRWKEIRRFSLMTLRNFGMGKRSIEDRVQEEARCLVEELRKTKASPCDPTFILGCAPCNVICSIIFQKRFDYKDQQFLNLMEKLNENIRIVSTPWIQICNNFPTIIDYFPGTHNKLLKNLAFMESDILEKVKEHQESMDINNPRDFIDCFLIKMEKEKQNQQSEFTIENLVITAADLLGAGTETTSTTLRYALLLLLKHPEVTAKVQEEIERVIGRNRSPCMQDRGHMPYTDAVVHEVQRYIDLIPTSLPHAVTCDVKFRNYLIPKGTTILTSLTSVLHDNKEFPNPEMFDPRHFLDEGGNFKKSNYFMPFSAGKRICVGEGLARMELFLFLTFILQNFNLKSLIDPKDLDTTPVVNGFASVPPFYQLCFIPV
rCYP2C9, sequence (P11712 whole entry): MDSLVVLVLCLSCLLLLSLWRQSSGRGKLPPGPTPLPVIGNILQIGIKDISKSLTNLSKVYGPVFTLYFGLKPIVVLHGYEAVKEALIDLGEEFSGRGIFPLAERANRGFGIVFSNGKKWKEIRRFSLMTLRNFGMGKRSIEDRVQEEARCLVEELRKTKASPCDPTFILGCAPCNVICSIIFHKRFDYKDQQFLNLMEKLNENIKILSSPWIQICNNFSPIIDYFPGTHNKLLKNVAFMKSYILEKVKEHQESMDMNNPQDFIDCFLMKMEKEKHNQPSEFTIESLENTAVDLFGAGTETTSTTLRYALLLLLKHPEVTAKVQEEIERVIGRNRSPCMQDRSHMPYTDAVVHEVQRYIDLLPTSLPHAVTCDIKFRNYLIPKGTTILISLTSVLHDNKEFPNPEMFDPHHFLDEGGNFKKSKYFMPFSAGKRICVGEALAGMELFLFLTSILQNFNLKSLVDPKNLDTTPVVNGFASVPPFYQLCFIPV
rCYP3A4, sequence (P08684 whole entry): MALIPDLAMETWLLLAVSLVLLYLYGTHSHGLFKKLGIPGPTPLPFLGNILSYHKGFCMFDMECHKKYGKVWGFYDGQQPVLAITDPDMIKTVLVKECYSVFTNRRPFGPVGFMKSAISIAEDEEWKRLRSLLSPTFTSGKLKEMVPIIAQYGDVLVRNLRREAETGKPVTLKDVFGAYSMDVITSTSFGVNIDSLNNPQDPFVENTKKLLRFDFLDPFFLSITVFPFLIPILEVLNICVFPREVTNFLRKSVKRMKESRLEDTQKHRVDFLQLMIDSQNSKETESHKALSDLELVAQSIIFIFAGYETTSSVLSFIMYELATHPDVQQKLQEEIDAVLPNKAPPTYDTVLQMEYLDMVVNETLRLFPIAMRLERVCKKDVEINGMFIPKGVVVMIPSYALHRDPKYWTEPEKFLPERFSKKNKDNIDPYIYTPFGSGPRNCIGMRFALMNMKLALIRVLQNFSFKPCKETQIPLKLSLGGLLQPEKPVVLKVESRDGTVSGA
T2 sequence (P08684 2-503): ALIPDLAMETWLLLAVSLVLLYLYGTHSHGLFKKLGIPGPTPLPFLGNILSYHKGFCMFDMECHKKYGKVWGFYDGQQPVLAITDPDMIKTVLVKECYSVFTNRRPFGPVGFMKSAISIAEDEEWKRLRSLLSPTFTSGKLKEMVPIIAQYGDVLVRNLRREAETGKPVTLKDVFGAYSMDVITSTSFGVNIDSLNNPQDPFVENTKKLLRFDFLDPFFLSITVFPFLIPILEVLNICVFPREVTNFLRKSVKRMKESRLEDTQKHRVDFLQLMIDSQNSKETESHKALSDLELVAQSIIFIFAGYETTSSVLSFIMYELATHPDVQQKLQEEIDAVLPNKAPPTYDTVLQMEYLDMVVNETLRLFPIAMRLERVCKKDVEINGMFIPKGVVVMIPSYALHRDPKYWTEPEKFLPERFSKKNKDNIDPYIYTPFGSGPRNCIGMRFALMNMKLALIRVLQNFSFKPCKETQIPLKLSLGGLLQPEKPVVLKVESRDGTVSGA
rCYP2D6, sequence (P10635 whole entry): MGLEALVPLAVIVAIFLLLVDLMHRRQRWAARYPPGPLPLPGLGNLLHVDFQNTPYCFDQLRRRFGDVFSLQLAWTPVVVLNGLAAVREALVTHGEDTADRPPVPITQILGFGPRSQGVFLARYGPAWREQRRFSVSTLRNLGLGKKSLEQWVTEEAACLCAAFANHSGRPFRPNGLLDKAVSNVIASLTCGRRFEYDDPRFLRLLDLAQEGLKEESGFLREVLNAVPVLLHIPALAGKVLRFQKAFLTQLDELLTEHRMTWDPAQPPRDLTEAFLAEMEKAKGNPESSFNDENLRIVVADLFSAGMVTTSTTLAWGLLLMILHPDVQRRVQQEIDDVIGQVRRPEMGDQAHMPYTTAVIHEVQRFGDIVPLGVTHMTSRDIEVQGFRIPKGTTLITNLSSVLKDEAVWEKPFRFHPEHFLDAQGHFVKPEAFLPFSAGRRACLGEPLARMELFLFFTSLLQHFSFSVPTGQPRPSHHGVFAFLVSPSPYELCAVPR

CC(=O)O[C@H]1C(=O)[C@@]2(C)[C@H]([C@H](OC(=O)c3ccccc3)[C@]3(O)C[C@H](OC(=O)[C@H](O)[C@@H](NC(=O)c4ccccc4)c4ccccc4)C(C)=C1C3(C)C)[C@]1(OC(C)=O)CO[C@@H]1C[C@@H]2O [Paclitaxel, paclitaxel]
% Metabolized at 30 min Incubation with Human Liver Fractions/Enzymes rCYP2C8 (rCYP2C8): 11.21%

CNC(=O)O/N=C/C(C)(C)SC [Aldicarb, aldicarb]
% Metabolized at 30 min Incubation with Human Liver Fractions/Enzymes rCYP2D6 (rCYP2D6): 0.00%
inhibition at 2 µM (CYP3A4 [1]): < 0%
inhibition at 10 µM (CYP3A4 [1]): < 0%
% Metabolized at 30 min Incubation with Human Liver Fractions/Enzymes rCYP2C19 (rCYP2C19): 6.93%
% Metabolized at 30 min Incubation with Human Liver Fractions/Enzymes rCYP1A2 (rCYP1A2): 0.00%
inhibition at 2 µM (CYP2C8): 2.63%
inhibition at 10 µM (CYP2C8): < 0%
% Metabolized at 30 min Incubation with Human Liver Fractions/Enzymes Cytosol [2]: 21.08%
inhibition at 2 µM (CYP3A4 [3]): < 0%
inhibition at 10 µM (CYP3A4 [3]): < 0%
% Metabolized at 30 min Incubation with Human Liver Fractions/Enzymes HLM [4]: 13.41%
% Metabolized at 30 min Incubation with Human Liver Fractions/Enzymes rCYP2C9 (rCYP2C9): 0.00%
% Contribution of CYP Enzymes (fmCYP) in Metabolism, CYP2C9 (rCYP2C9; [5]): 43.09%
Predicted Microsomal Clint, CYP2C9 (rCYP2C9; [5]): 2.298 µL/min/mg Protein
rCYP Clint, CYP2C9 (rCYP2C9; [5]): 0.024 µL/min/pmol
% Metabolized at 30 min Incubation with Human Liver Fractions/Enzymes rCYP2C8 (rCYP2C8): 13.26%
% Contribution of CYP Enzymes (fmCYP) in Metabolism, CYP2C8 (rCYP2C8; [6]): 56.91%
Predicted Microsomal Clint, CYP2C8 (rCYP2C8; [6]): 3.035 µL/min/mg Protein
rCYP Clint, CYP2C8 (rCYP2C8; [6]): 0.047 µL/min/pmol
% Metabolized at 30 min Incubation with Human Liver Fractions/Enzymes rCYP3A4 (rCYP3A4; [7]): 0.00%

CN(CCOc1ccc(CC2SC(=O)NC2=O)cc1)c1ccccn1 (stereo not shown) [Rosiglitazone, reference compound]
inhibition at 25 µM (CYP2C8): 69.2%

CN(Cc1cnc2nc(N)nc(N)c2n1)c1ccc(C(=O)N[C@@H](CCC(=O)O)C(=O)O)cc1 [Methotrexate, reference compound]
% Metabolized at 30 min Incubation with Human Liver Fractions/Enzymes Cytosol [2]: 3.18%

CNC(=O)O/N=C/C(C)(C)[S+](C)[O-] (stereo not shown) [Aldicarb sulfoxide, aldicarb sulfoxide]
% Metabolized at 30 min Incubation with Human Liver Fractions/Enzymes rCYP2D6 (rCYP2D6): 0.00%
inhibition at 2 µM (CYP3A4 [1]): < 0%
inhibition at 10 µM (CYP3A4 [1]): < 0%
% Metabolized at 30 min Incubation with Human Liver Fractions/Enzymes rCYP2C19 (rCYP2C19): 0.85%
% Contribution of CYP Enzymes (fmCYP) in Metabolism, CYP2C19 (rCYP2C19; [8]): 2.34%
Predicted Microsomal Clint, CYP2C19 (rCYP2C19; [8]): 0.054 µL/min/mg Protein
rCYP Clint, CYP2C19 (rCYP2C19; [8]): 0.003 µL/min/pmol
% Metabolized at 30 min Incubation with Human Liver Fractions/Enzymes rCYP1A2 (rCYP1A2): 0.00%
inhibition at 2 µM (CYP2C8): < 0%
inhibition at 10 µM (CYP2C8): 2.32%
% Metabolized at 30 min Incubation with Human Liver Fractions/Enzymes Cytosol [2]: 0.00%
inhibition at 2 µM (CYP3A4 [3]): < 0%
inhibition at 10 µM (CYP3A4 [3]): < 0%
% Metabolized at 30 min Incubation with Human Liver Fractions/Enzymes HLM [4]: 21.18%
% Metabolized at 30 min Incubation with Human Liver Fractions/Enzymes rCYP2C9 (rCYP2C9): 0.00%
% Metabolized at 30 min Incubation with Human Liver Fractions/Enzymes rCYP2C8 (rCYP2C8): 0.00%
% Metabolized at 30 min Incubation with Human Liver Fractions/Enzymes rCYP3A4 (rCYP3A4; [7]): 5.91%
Predicted Microsomal Clint, CYP3A4 (rCYP3A4; human, pH 7.4): 2.254 µL/min/mg Protein
% Contribution of CYP Enzymes (fmCYP) in Metabolism, CYP3A4 (rCYP3A4; [9]): 97.66%
rCYP Clint, CYP3A4 (rCYP3A4; [9]): 0.020 µL/min/pmol

c1ccc2cnncc2c1 [Phthalazine, phthalazine, reference compound]
% Metabolized at 30 min Incubation with Human Liver Fractions/Enzymes Cytosol [2]: 90.89%

C[C@]12CC[C@H]3[C@@H](CCC4=CC(=O)CC[C@@]43C)[C@@H]1CC[C@@H]2O [Testosterone, testosterone, reference compound]
% Metabolized at 30 min Incubation with Human Liver Fractions/Enzymes HLM [4]: 90.74%
% Metabolized at 30 min Incubation with Human Liver Fractions/Enzymes rCYP3A4 (rCYP3A4; human, recombinant enzyme, 0.5 h, pH 7.4): 85.13%
